The record followed here is US20140323304A1, “HERBICIDE COMPOSITION AND WEED CONTROL METHOD” (SDS BIOTECH K.K., priority 2008, published 2014).

Common to all, as to assay: Pot test on the foliar application (post-emergence treatment of weeds)
Holding throughout (assay type): in vivo
What all share (settings): day 10

One experiment deals with Amaranthus viridis. As for the experimental part:
(§1) Field soil was packed in a 350 cm^2 plastic pot and seeds of Echinochloa utilis, Digitaria adscendens, Avena fatua, Amaranthus viridis, Chenopodium album and Ipomoea purpurea were sown and covered with soil of about 1 cm thickness. After water absorption and at day 25 after the seeding, sugi-refined oil diluted with a stock solution or water was sprayed uniformly in a spray volume of 200 ml per 1 m^2. The test was performed in a glass greenhouse at a temperature of from 18 to 30° C., and the soil was appropriately moistened from the bottom side.
(§2) Using each of the oily extracts obtained in Preparation Example 2, a flowable (emulsion) formulation was prepared according to Preparation Example 2. The herbicidal activity in the post-emergence stage was evaluated by the method according to Test Example 3 except that the dilution ratio of the spray solution with water was fixed to 4-fold dilution.
(§3) Using the liquid formulation prepared in Formulation Example 3, the herbicidal activity in the post-emergence stage was evaluated by the method according to Test Example 3 except that the test was conducted under a fixed condition that the solution was used as a stock solution without being diluted with water. Also, a formulation using water as a substitute of an oily extract, i.e. a formulation containing sodium bicarbonate only was prepared for comparison, and its herbicidal effect was evaluated as a comparative example. The formulation was sprayed uniformly in a spray volume of 200 ml per 1 m^2.
as §3, with “4,” for “3,”, “treatment of weeds” for “stage”, “calcium borate” for “sodium bicarbonate”
as §3, with “5,” for “3,”, “treatment of weeds” for “stage”, “d-limonene” for “sodium bicarbonate”
(§4) Using these essential oils, a flowable (emulsion) formulation was prepared according to Formulation Example 2. The herbicidal activity in the post-emergence treatment of weeds was evaluated by the method according to Test Example 3 except that the dilution ratio of the spray solution with water was fixed to 2-fold dilution.

The subject of the next experiment is Avena fatua. The method, then: as §1, §2, §3
as §3, with “4,” for “3,”, “treatment of weeds” for “stage”, “calcium borate” for “sodium bicarbonate”
as §3, with “5,” for “3,”, “treatment of weeds” for “stage”, “d-limonene” for “sodium bicarbonate”
as §4

Another experiment deals with Chenopodium album. As for the experimental part:
as §1, §2, §3
as §3, with “4,” for “3,”, “treatment of weeds” for “stage”, “calcium borate” for “sodium bicarbonate”
as §3, with “5,” for “3,”, “treatment of weeds” for “stage”, “d-limonene” for “sodium bicarbonate”
as §4

The test system of the next experiment is Digitaria adscendens. As for the experimental part: as §1, §2, §3
as §3, with “4,” for “3,”, “treatment of weeds” for “stage”, “calcium borate” for “sodium bicarbonate”
as §3, with “5,” for “3,”, “treatment of weeds” for “stage”, “d-limonene” for “sodium bicarbonate”
as §4

A further experiment has as its system Echinochloa utilis. As for the experimental part: as §1, §2, §3
as §3, with “4,” for “3,”, “treatment of weeds” for “stage”, “calcium borate” for “sodium bicarbonate”
as §3, with “5,” for “3,”, “treatment of weeds” for “stage”, “d-limonene” for “sodium bicarbonate”
as §4

The next experiment has as its system Ipomoea purpurea. The method, then:
as §1, §2, §3
as §3, with “4,” for “3,”, “treatment of weeds” for “stage”, “calcium borate” for “sodium bicarbonate”
as §3, with “5,” for “3,”, “treatment of weeds” for “stage”, “d-limonene” for “sodium bicarbonate”
as §4

Where [1] appears, read: undiluted liquid formulation 200 ml/m^2, per 1 m^2: 20 ml of the essential oil and 20 ml of d-limonene.
[2] abbreviates: undiluted liquid formulation 200 ml/m^2, per 1 m^2: 20 ml of the essential oil and 12 g of calcium borate.
[3] abbreviates: undiluted liquid formulation 200 ml/m^2, per 1 m^2: 20 ml of the essential oil and 12 g of sodium bicarbonate.

Consider `C=C(C)[C@H]1CC=C(C)CC1` [Comparative Example (d-limonene only), d-limonene], for which the “Herbicidal activity Amaranthus viridis” value with Amaranthus viridis (setting [1]) was 6 (56 to 65%). The “Herbicidal activity Avena fatua” value in the experiment with Avena fatua (setting [1]) is given as 5 (46 to 55%). Further, in the experiment on Chenopodium album (setting [1]), the “Herbicidal activity Chenopodium album” value was 6 (56 to 65%). In the experiment on Digitaria adscendens (setting [1]), the “Herbicidal activity Digitaria adscendens” value is on record as 7 (66 to 75%). Moreover, in the experiment with Echinochloa utilis (setting [1]), the “Herbicidal activity Echinochloa utilis” value is listed as 5 (46 to 55%). Besides, the “Herbicidal activity Ipomoea purpurea” value with Ipomoea purpurea (setting [1]) is on record as 4 (36 to 45%).
On to calcium borate, for which the “Herbicidal activity Amaranthus viridis” value with Amaranthus viridis (setting [2]) is recorded as 4 (36 to 45%). Also, the “Herbicidal activity Avena fatua” value with Avena fatua (setting [2]) is 5 (46 to 55%). Moreover, the “Herbicidal activity Chenopodium album” value in the experiment with Chenopodium album (setting [2]) is listed as 4 (36 to 45%). Besides, in the experiment on Digitaria adscendens (setting [2]), the “Herbicidal activity Digitaria adscendens” value was 4 (36 to 45%). Further, the “Herbicidal activity Echinochloa utilis” value in the experiment on Echinochloa utilis (setting [2]) was 4 (36 to 45%). Further, the “Herbicidal activity Ipomoea purpurea” value in the experiment on Ipomoea purpurea (setting [2]) is given as 3 (26 to 35%).
On to `O=C([O-])O.[Na+]` [sodium bicarbonate], for which the “Herbicidal activity Amaranthus viridis” value in the experiment with Amaranthus viridis (setting [3]) is 3 (26 to 35%). For the same molecule, the “Herbicidal activity Avena fatua” value in the experiment with Avena fatua (setting [3]) is 4 (36 to 45%). Besides, the “Herbicidal activity Chenopodium album” value in the experiment with Chenopodium album (setting [3]) is 4 (36 to 45%). The “Herbicidal activity Digitaria adscendens” value in the experiment with Digitaria adscendens (setting [3]) is 4 (36 to 45%). In addition, the “Herbicidal activity Echinochloa utilis” value with Echinochloa utilis (setting [3]) is 3 (26 to 35%). For the same molecule, the “Herbicidal activity Ipomoea purpurea” value in the experiment on Ipomoea purpurea (setting [3]) was 2 (16 to 25%).
